# Laboratory results: patent publication US9408796B2, “Cosmetic compositions for improving the appearance of skin” (Avon Products, Inc., priority 2013, dated 2016)
# What was measured:
# [1] = system: Human dermal fibroblasts; test: Collagen stimulation: procollagen type I C-peptide (PIP) EIA on conditioned medium; type: cell-based; conditions: 0.0005% compound, 48-hour incubation, increase in collagen over the vehicle control
# Protocol: (§1) Collagen. Human dermal fibroblasts (Cascade Biologics, Portland, Oreg.) were plated at in 96-well culture plates in supplemented medium (DMEM, 10% Fetal Bovine Serum, 1% Penicillin/Streptomycin and 1% L-Glutamine) overnight in humidified atmosphere of 10% CO2 at 37° C. The following day, the medium was replaced with fresh medium (DMEM, 1% Penicillin/Streptomycin and 1% L-Glutamine) and the actives dissolved in a vehicle were added to the wells in triplicate. Vehicle was used as control. Following 48-hour incubation, the plates were removed from the incubator and the medium from each well was collected for the procollagen assay.
# Collage production was measured using procollagen type I C-peptide (PIP) EIA kit (Takara Bio, Inc., Japan). Briefly, the conditioned medium was diluted 1:10 in Sample Diluent. 20 μl of diluted conditioned medium and 100 μl of antibody-POD conjugate solution were added to the wells of the Takara ELISA plate. The ELISA plate was incubated at 37° C. for 3 hours before the wells were washed four times with 400 μl of 1×PBS. At the end of wash, 100 μl of substrate solution (supplied with kit) was added to the wells and incubated at room temperature for 15 minutes. […] The absorbance was measured on a spectrophotometer at 450 nm wavelength. The amount of procollagen peptide in the conditioned medium was calculated from the standard curve. […]
# [2] = system: Human dermal fibroblasts; test: Hyaluronic acid stimulation: hyaluronic acid test kit on conditioned medium; type: cell-based; conditions: 0.0005% compound, 48-hour incubation, increase in hyaluronic acid over the vehicle control
# Protocol: as §1, with “Human” for “Collagen. Human”, “hyaluronic acid” for “procollagen”
# Hyaluronic acid production was measured using hyaluronic acid test kit (Corgenix, Inc. CO, USA). Briefly, 100 μl diluted conditioned medium was added to appropriate microwells and was incubated for 60 minutes at room temperature. After the incubation is complete, the conditioned medium was removed and 100 μl HRP-conjugated HABP solution was added to each well and incubated for 30 minutes at room temperature. Wash each well 4 times with PBS after the incubation is complete. Add 100 μl One-component Substrate Solution to each well and incubate for 30 minutes at room temperature. Add 100 μl Stopping Solution to stop the enzyme reaction and read the O.D. of each well at 450 nm. The amount of hyaluronic acid in the conditioned medium was calculated from the standard curve. […]
smiles,measurement,setting,value
COc1ccccc1CNc1nc(-c2ccc(O)c(C(N)=O)c2)cs1 [Formula I(c)],Collagen stimulation,[1],+ (The “+” describes a stimulation of between 21-40%)
COc1cccc(-c2nc(-c3ccc(O)c(C(N)=O)c3)cs2)c1OC [Formula I(d)],Hyaluronic acid stimulation,[2],+ (The “+” describes a stimulation of between 21-40%)
same,Collagen stimulation,[1],+ (The “+” describes a stimulation of between 21-40%)
